Consider 13 compounds from PubChem BioAssay AID248 (DTP/NCI, 2004).

Several values for one entry are separate records, joined by “and”; a condition that tells them apart may be missing. Identical values can stand only once. Inconclusive results and toxic doses are left out.

For the experiment, the system named is L1210 leukemia ip in BDF1 mice, survival T/C. Kind of experiment: NCI In Vivo Anticancer Drug Screen. Data for tumor model L1210 Leukemia (intraperitoneal) in B6D2F1 (BDF1) mice. The note with it: endpoint: mean survival time, higher = longer survival. In a few lines:
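Read-out is survival time, reported as the treated-group measurement over the vehicle-control measurement.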

Where [1] appears, read: dose: 100.0 mg/kg/injection, schedule: Q01DX001 (ip), vehicle: Klucel (hydroxypropylcellulose) (HPC).
Where [2] appears, read: dose: 200.0 mg/kg/injection, schedule: Q01DX001 (ip), vehicle: Klucel (hydroxypropylcellulose) (HPC).
The mark [3] stands for this setting: dose: 400.0 mg/kg/injection, schedule: Q01DX001 (ip), vehicle: Klucel (hydroxypropylcellulose) (HPC).
[4] abbreviates: dose: 100.0 mg/kg/injection, schedule: Q01DX001 (ip), vehicle: saline.
The mark [5] stands for this setting: dose: 200.0 mg/kg/injection, schedule: Q01DX001 (ip), vehicle: saline.
Where [6] appears, read: dose: 400.0 mg/kg/injection, schedule: Q01DX001 (ip), vehicle: saline.
The mark [7] stands for this setting: dose: 100.0 mg/kg/injection, schedule: Q04DX003 (ip), vehicle: Klucel (hydroxypropylcellulose) (HPC).
[8] abbreviates: dose: 200.0 mg/kg/injection, schedule: Q04DX003 (ip), vehicle: Klucel (hydroxypropylcellulose) (HPC).
Where [9] appears, read: dose: 400.0 mg/kg/injection, schedule: Q04DX003 (ip), vehicle: Klucel (hydroxypropylcellulose) (HPC).

Consider `CC(CN)OC12CC3CC(CC(C3)C1)C2` (stereo not drawn), for which the T/C (dose: 5.0 mg/kg/injection, schedule: Q04DX002 (ip), vehicle: saline) was 91 % of control; the T/C (dose: 10.0 mg/kg/injection, schedule: Q01DX009 (ip), vehicle: saline) was 94 % of control; the T/C (dose: 10.0 mg/kg/injection, schedule: Q04DX002 (ip), vehicle: saline) is 102 % of control; the T/C (dose: 20.0 mg/kg/injection, schedule: Q01DX009 (ip), vehicle: saline) was 101 % of control; the T/C (dose: 20.0 mg/kg/injection, schedule: Q04DX002 (ip), vehicle: saline) was 94 % of control; the T/C (dose: 40.0 mg/kg/injection, schedule: Q01DX009 (ip), vehicle: saline) is 101 % of control. Also, the T/C (dose: 40.0 mg/kg/injection, schedule: Q04DX002 (ip), vehicle: saline) is 95 % of control and 91 % of control.

For `CCCP(C)(=S)CCC`, the T/C is 112 % of control (dose: 25.0 mg/kg/injection, schedule: Q04DX002 (ip), vehicle: Klucel (hydroxypropylcellulose) (HPC)); 108 % of control (dose: 50.0 mg/kg/injection, schedule: Q04DX002 (ip), vehicle: Klucel (hydroxypropylcellulose) (HPC)); 112 % of control (dose: 100.0 mg/kg/injection, schedule: Q04DX002 (ip), vehicle: Klucel (hydroxypropylcellulose) (HPC)).

Consider `O=S(=O)(O)c1ccccn1`, for which the T/C was 98 % of control (dose: 100.0 mg/kg/injection, schedule: Q04DX003 (ip), vehicle: saline) and 93 % of control (dose: 200.0 mg/kg/injection, schedule: Q04DX003 (ip), vehicle: saline).

With `CCOC(=O)C1=C(C)N(Cc2ccccc2)C(C)=C(C(=O)OCC)C1(C)C`, the T/C (dose: 100.0 mg/kg/injection, schedule: Q04DX003 (ip), vehicle: saline with Tween-80) was 101 % of control; the T/C (dose: 200.0 mg/kg/injection, schedule: Q04DX003 (ip), vehicle: saline with Tween-80) is 98 % of control; the T/C (dose: 400.0 mg/kg/injection, schedule: Q04DX003 (ip), vehicle: saline with Tween-80) is 106 % of control.

In the case of `NC(=O)NC(C(=O)O)(c1ccccc1)C1CCC1` (stereo not drawn), the T/C was 103 % of control (dose: 50.0 mg/kg/injection, schedule: Q01DX009 (ip), vehicle: saline with Tween-80); 94 % of control (dose: 100.0 mg/kg/injection, schedule: Q01DX009 (ip), vehicle: saline with Tween-80); 102 % of control (dose: 200.0 mg/kg/injection, schedule: Q01DX009 (ip), vehicle: saline with Tween-80); 107 % of control (dose: 400.0 mg/kg/injection, schedule: Q01DX009 (ip), vehicle: saline with Tween-80).

Regarding `CCCCCCN1CCCC(OC(=O)N(C)C)C1` (stereo not drawn), the T/C reads like this: (dose: 25.0 mg/kg/injection, schedule: Q04DX002 (ip), vehicle: saline) 113 % of control; (dose: 50.0 mg/kg/injection, schedule: Q04DX002 (ip), vehicle: saline) 103 % of control; (dose: 100.0 mg/kg/injection, schedule: Q04DX002 (ip), vehicle: saline) 100 % of control and 104 % of control.

As to `O=C(O)/C(=C\c1cccc(Br)c1)c1ccccc1`, the T/C by setting is: (dose: 75.0 mg/kg/injection, schedule: Q04DX003 (ip), vehicle: Klucel (hydroxypropylcellulose) (HPC)) 104 % of control; under setting [1], 105 % of control; (dose: 150.0 mg/kg/injection, schedule: Q04DX003 (ip), vehicle: Klucel (hydroxypropylcellulose) (HPC)) 96 % of control; under setting [2], 97 % of control; (dose: 300.0 mg/kg/injection, schedule: Q04DX003 (ip), vehicle: Klucel (hydroxypropylcellulose) (HPC)) 105 % of control; under setting [3], 97 % of control.

For `O=[N+]([O-])c1cccc(/C=C/C=C/c2c(Cl)cccc2Cl)c1`, the T/C is, setting by setting: under setting [4], 91 % of control; under setting [5], 94 % of control; under setting [6], 100 % of control.

As to `O=C(Nc1ccc(C2=NCCN2)cc1)c1cc(Cl)cc(C(=O)Nc2ccc(C3=NCCN3)cc2)c1`, the T/C is 96 % of control and 104 % of control (dose: 62.5 mg/kg/injection, schedule: Q01DX009 (ip), vehicle: saline); 102 % of control (dose: 120.0 mg/kg/injection, schedule: Q01DX Z (oral), vehicle: carboxymethylcellulose (CMC)); 99 % of control and 106 % of control (dose: 125.0 mg/kg/injection, schedule: Q01DX009 (ip), vehicle: saline); 105 % of control (dose: 140.0 mg/kg/injection, schedule: Q01DX010 (ip), vehicle: saline); 107 % of control and 110 % of control (dose: 140.0 mg/kg/injection, schedule: Q01DX Z (ip), vehicle: methylcellulose (MC)); 109 % of control (dose: 210.0 mg/kg/injection, schedule: Q01DX010 (ip), vehicle: saline). The T/C reads like this: (dose: 210.0 mg/kg/injection, schedule: Q01DX Z (ip), vehicle: methylcellulose (MC)) 115 % of control; (dose: 240.0 mg/kg/injection, schedule: Q01DX Z (oral), vehicle: carboxymethylcellulose (CMC)) 104 % of control; (dose: 250.0 mg/kg/injection, schedule: Q01DX009 (ip), vehicle: saline) 96 % of control and 104 % of control; (dose: 315.0 mg/kg/injection, schedule: Q01DX010 (ip), vehicle: saline) 98 % of control and 105 % of control; (dose: 315.0 mg/kg/injection, schedule: Q01DX Z (ip), vehicle: methylcellulose (MC)) 179 % of control; (dose: 473.0 mg/kg/injection, schedule: Q01DX010 (ip), vehicle: saline) 107 % of control and 110 % of control. The T/C (dose: 473.0 mg/kg/injection, schedule: Q01DX Z (ip), vehicle: methylcellulose (MC)) was 151 % of control; the T/C (dose: 480.0 mg/kg/injection, schedule: Q01DX Z (oral), vehicle: carboxymethylcellulose (CMC)) is 107 % of control; the T/C (dose: 500.0 mg/kg/injection, schedule: Q01DX009 (ip), vehicle: saline) was 103 % of control and 112 % of control; the T/C (dose: 960.0 mg/kg/injection, schedule: Q01DX Z (oral), vehicle: carboxymethylcellulose (CMC)) was 100 % of control.

For the compound `O=C(NC(=O)C(Cl)Cl)Nc1ccc2c(c1)Cc1ccccc1-2`, the T/C is, setting by setting: under setting [1], 95 % of control; (dose: 100.0 mg/kg/injection, schedule: Q01DX009 (ip), vehicle: Klucel (hydroxypropylcellulose) (HPC)) 100 % of control; under setting [7], 102 % of control; under setting [2], 100 % of control; (dose: 200.0 mg/kg/injection, schedule: Q01DX009 (ip), vehicle: Klucel (hydroxypropylcellulose) (HPC)) 98 % of control; under setting [8], 96 % of control. Besides, the T/C was 100 % of control under setting [3]; 104 % of control (dose: 400.0 mg/kg/injection, schedule: Q01DX009 (ip), vehicle: Klucel (hydroxypropylcellulose) (HPC)); 96 % of control under setting [9].

On to `CC(C)C1(NC(=O)C2C=C3c4cccc5[nH]cc(c45)CC3N(C)C2)OC2(O)C3CCCN3C(=O)C(Cc3ccccc3)N2C1=O` (stereo not drawn), for which the T/C reads like this: (dose: 50.0 mg/kg/injection, schedule: Q01DX001 (ip), vehicle: carboxymethylcellulose (CMC)) 93 % of control; (dose: 50.0 mg/kg/injection, schedule: Q01DX001 (ip), vehicle: other) 93 % of control; (dose: 100.0 mg/kg/injection, schedule: Q01DX001 (ip), vehicle: carboxymethylcellulose (CMC)) 98 % of control; (dose: 100.0 mg/kg/injection, schedule: Q01DX001 (ip), vehicle: other) 88 % of control; under setting [4], 102 % of control; (dose: 200.0 mg/kg/injection, schedule: Q01DX001 (ip), vehicle: other) 93 % of control. Moreover, the T/C runs as follows: under setting [5], 96 % of control and 89 % of control; (dose: 400.0 mg/kg/injection, schedule: Q01DX001 (ip), vehicle: other) 96 % of control.

On to `Clc1ccc(-c2coc3cccc[n+]23)cc1`, for which the T/C was 100 % of control (dose: 75.0 mg/kg/injection, schedule: Q01DX001 (ip), vehicle: other); 97 % of control (dose: 150.0 mg/kg/injection, schedule: Q01DX001 (ip), vehicle: other); 97 % of control (dose: 300.0 mg/kg/injection, schedule: Q01DX001 (ip), vehicle: other).

Turning to `O=c1n(-c2ccccc2)c(=O)n(-c2ccccc2)c(=O)n1-c1ccccc1`, the T/C is, setting by setting: under setting [4], 107 % of control; under setting [7], 89 % of control; under setting [5], 102 % of control; under setting [8], 94 % of control; under setting [6], 115 % of control; under setting [9], 104 % of control.
